# Assay results: patent US6552080B1, “Fungicidal compounds having a fluorovinyl-or fluoropropenyl-oxyphenyloxime moiety and process for the preparation thereof” (Korea Research Institute of Chemical Technology, priority 1999, dated 2003)
# Where two headings read alike, the source gives them in different places.
# Columns and labels:
# Rhizoctonia solani AG-1 = assay: Fungicidal activity against Rice Sheath Blight (RSB) disease; conditions: for RSB (Fungicidal Activities, C.V.): Rice Sheath Blight
# Erysiphae graminis = assay: Fungicidal activity against Barley Powdery Mildew (BPM) disease; format: in vivo; conditions: for BPM (Fungicidal Activities, C.V.): Barley Powdery Mildew
# Botrytis cinerae = assay: Fungicidal activity against Cucumber Gray Mold Rot (CGM) disease; format: in vivo; conditions: for CGM (Fungicidal Activities, C.V.): Cucumber Gray Mold Rot, concentration 50 ppm
# Method: Botrytis cinerae, which was isolated from cucumber infected thereby, was inoculated on a PDA agar medium and cultured under a 12L/12D cycle at 25° C. for 15 days to form spore. The spores were scraped, filtered through a gauze and then suspended in potato dextrose liquid medium at a concentration of 1×10^6 spore/ml. The spore suspension was sprayed on a cucumber plant having one leaf. The cucumber plant was held in a humidified room at 20° C. for 3 days. L.A. on a leaf was measured to calculate an C.V.
# Puccinia recondita = assay: Fungicidal activity against Wheat Leaf Rust (WLR) disease; format: in vivo; conditions: for WLR (Fungicidal Activities, C.V.): Wheat Leaf Rust
# Phytophthora infestans = format: in vivo; conditions: for TLB (Fungicidal Activities, C.V.): Tomato Late Blight, concentration 50 ppm
# [1] = tested on: Pyricularia oryzae Carvara KA301; format: in vivo; conditions: for RCV (Fungicidal Activities, C.V.): Rice Blast
SMILES,"RSB (Fungicidal Activities, C.V.) (Rhizoctonia solani AG-1; concentration 50 ppm) [%]","BPM (Fungicidal Activities, C.V.) (Erysiphae graminis; concentration 2 ppm) [%]","BPM (Fungicidal Activities, C.V.) (Erysiphae graminis; concentration 50 ppm) [%]","CGM (Fungicidal Activities, C.V.) (Botrytis cinerae) [%]","WLR (Fungicidal Activities, C.V.) (Puccinia recondita; concentration 2 ppm) [%]","WLR (Fungicidal Activities, C.V.) (Puccinia recondita; concentration 50 ppm) [%]","TLB (Fungicidal Activities, C.V.) (Phytophthora infestans) [%]","RCV (Fungicidal Activities, C.V.) ([1]; concentration 2 ppm) [%]","RCV (Fungicidal Activities, C.V.) ([1]; concentration 50 ppm) [%]","BPM (Fungicidal Activities, C.V.) (Erysiphae graminis; concentration 10 ppm) [%]","WLR (Fungicidal Activities, C.V.) (Puccinia recondita; concentration 10 ppm) [%]","RCV (Fungicidal Activities, C.V.) ([1]; concentration 10 ppm) [%]",also measured
CNC(=O)C(=NOC)c1ccccc1CON=Cc1cccc(OC(F)=Cc2ccc(C)c(C)c2)c1 [Compound 32],41,0,100,8,3,99,0,99,100,,,,
CNC(=O)C(=COC)c1ccccc1CON=C(C)c1cccc(OC(F)=Cc2ccc(OC)cc2)c1 [Compound 60],29,,100,8,,66,0,,100,,,,
COC=C(C(=O)OC)c1ccccc1CON=C(C)c1cccc(OC(F)=C(c2cc(Cl)cc(Cl)c2)C(F)(F)F)c1 [Compound 164],,,,,,,,,,,,,Fungicidal Activities RSB (C.V.) (Rhizoctonia solani AG-1; 50 ppm): 20%; Fungicidal Activities BPM (C.V.) (Erysiphae graminis; 2 ppm): 71%; Fungicidal Activities BPM (C.V.) (Erysiphae graminis; 10 ppm): 99%; Fungicidal Activities BPM (C.V.) (Erysiphae graminis; 50 ppm): 100%; Fungicidal Activities CGM (C.V.) (Botrytis cinerae; 50 ppm): 36%; Fungicidal Activities WLR (C.V.) (Puccinia recondita; 2 ppm): 60%; Fungicidal Activities WLR (C.V.) (Puccinia recondita; 10 ppm): 95%; Fungicidal Activities WLR (C.V.) (Puccinia recondita; 50 ppm): 96%; Fungicidal Activities TLB (C.V.) (Phytophthora infestans; 50 ppm): 0%; Fungicidal Activities RCV (C.V.) ([1]; 50 ppm): 41%
CNC(=O)C(=NOC)c1ccccc1CON=Cc1cccc(OC(F)=C(c2ccc(F)cc2)C(F)(F)F)c1 [Compound 145],64,33,100,0,83,100,0,83,100,,,,
CCc1ccc(C=C(F)Oc2cccc(C(C)=NOCc3ccccc3C(=COC)C(=O)OC)c2)cc1 [Compound 45],65,99,100,17,95,100,85,41,97,100,100,93,
CON=C(C(=O)OC)c1ccccc1CON=C(C)c1cccc(OC(F)=Cc2ccc(C)cc2)c1 [Compound 66],100,100,100,75,99,100,0,100,100,100,100,100,"RSB (Fungicidal Activities, C.V.) (Rhizoctonia solani AG-1; concentration 2 ppm): 20%; RSB (Fungicidal Activities, C.V.) (Rhizoctonia solani AG-1; concentration 10 ppm): 65%"
